Test results published in ChEMBL document CHEMBL3804755, “Discovery of new [1,4]dioxino[2,3-f]quinazoline-based inhibitors of EGFR including the T790M/L858R mutant” (Bioorg Med Chem, 2016).

Assays:
[1] = biological target: Epidermal growth factor receptor (Homo sapiens, UniProt P00533); test: Inhibition of wild type EGFR (unknown origin) autophosphorylation preincubated for 30 mins followed by ATP addition measured after 1 hr by kinase-glo luminescence assay
[2] = biological target: Epidermal growth factor receptor (Homo sapiens, UniProt P00533, L858R/T790M); type: protein assay
Epidermal growth factor receptor (Homo sapiens, UniProt P00533, L858R/T790M), sequence (P00533 25-1210 T790M/L858R limits assumed): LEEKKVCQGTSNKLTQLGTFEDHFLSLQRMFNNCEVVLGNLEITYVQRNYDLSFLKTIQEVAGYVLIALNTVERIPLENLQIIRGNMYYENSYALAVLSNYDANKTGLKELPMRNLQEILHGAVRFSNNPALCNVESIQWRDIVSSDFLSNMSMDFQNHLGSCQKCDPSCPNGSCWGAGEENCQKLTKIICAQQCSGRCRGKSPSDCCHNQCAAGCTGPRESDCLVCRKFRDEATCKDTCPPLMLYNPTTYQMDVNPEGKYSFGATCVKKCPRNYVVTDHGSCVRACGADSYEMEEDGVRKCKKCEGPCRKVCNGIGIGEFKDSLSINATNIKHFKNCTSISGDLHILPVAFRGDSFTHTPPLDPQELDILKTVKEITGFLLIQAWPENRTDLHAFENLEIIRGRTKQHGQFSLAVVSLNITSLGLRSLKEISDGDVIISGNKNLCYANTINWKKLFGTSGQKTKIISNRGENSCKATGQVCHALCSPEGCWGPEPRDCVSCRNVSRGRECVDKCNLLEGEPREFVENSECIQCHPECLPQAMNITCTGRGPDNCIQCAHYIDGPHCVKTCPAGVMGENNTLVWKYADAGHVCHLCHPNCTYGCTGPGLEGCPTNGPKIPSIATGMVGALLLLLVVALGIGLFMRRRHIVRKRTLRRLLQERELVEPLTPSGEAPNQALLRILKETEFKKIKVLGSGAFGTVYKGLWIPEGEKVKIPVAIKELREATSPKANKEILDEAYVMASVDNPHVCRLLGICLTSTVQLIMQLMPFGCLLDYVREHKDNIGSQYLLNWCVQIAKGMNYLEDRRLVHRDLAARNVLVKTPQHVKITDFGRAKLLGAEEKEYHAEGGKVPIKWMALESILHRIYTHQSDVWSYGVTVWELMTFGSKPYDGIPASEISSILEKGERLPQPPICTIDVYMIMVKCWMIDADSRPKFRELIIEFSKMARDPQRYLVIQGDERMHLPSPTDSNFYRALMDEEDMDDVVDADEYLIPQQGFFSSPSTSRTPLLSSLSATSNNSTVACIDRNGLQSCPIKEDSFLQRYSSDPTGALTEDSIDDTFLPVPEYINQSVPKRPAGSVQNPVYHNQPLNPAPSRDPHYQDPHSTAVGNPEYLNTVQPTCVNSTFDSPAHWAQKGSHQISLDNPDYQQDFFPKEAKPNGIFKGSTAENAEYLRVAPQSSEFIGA

[3] = test system: NCI-H358; test: Antiproliferative activity against human NCI-H358 cells assessed as reduction in cell viability after 48 hrs by cck8 assay; type: functional, cell-based; conditions: NCI-H358, 48 h
[4] = test system: A549; test: Antiproliferative activity against human A549 cells assessed as reduction in cell viability after 48 hrs by cck8 assay; type: functional, cell-based; conditions: A549, 48 h
[5] = Cytotoxicity against HEK293T assessed as reduction in cell viability by MTT assay; type: cell-based, HEK-293T; conditions: human, HEK293T cells

Epidermal growth factor receptor (Homo sapiens, UniProt P00533), sequence (P00533 whole entry): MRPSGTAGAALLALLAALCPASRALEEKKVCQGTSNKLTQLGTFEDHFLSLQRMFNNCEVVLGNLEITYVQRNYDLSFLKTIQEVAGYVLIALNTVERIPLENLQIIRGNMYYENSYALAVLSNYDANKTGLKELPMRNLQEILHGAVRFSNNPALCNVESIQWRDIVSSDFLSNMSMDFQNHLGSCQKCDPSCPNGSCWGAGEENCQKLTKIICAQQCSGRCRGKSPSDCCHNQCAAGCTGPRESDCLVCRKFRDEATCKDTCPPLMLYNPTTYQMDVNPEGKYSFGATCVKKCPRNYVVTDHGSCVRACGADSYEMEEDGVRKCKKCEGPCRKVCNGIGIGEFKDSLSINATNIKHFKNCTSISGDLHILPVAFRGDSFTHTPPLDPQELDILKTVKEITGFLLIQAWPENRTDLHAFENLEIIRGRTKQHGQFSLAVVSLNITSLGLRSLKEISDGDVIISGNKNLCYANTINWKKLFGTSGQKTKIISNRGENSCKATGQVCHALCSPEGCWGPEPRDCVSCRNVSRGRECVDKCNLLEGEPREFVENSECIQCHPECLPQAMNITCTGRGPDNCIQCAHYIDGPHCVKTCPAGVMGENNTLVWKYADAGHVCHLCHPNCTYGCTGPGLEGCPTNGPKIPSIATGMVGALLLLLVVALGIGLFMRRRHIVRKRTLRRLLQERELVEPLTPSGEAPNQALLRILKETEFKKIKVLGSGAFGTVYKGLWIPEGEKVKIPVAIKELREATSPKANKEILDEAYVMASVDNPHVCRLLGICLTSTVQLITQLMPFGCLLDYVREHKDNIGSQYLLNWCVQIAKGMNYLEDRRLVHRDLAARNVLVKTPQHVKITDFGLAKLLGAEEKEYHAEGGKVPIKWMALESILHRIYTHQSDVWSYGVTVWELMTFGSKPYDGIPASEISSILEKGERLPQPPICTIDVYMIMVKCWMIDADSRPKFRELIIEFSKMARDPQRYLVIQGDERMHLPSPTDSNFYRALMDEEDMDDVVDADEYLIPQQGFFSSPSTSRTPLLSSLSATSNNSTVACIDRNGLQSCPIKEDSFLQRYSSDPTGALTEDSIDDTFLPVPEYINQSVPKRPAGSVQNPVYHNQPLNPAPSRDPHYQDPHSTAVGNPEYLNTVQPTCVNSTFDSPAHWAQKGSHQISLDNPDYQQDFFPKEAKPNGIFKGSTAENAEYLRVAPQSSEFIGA

SMILES	IC50 [1] [nM]	IC50 [2] [nM]	IC50 [3] [nM]	IC50 [4] [nM]	CC50 [5] [nM]
Clc1cccc(Nc2ncnc3cc(OCCCN4CCOCC4)c4c(c23)OCCO4)c1	21.9				
COc1cc2ncnc(Nc3ccc(F)c(Cl)c3)c2c2c1OCCO2	22.5	1000			
Cc1ccc(Nc2ncnc3cc(OC(C)C)c4c(c23)OCCO4)cc1[N+](=O)[O-]	184	> 1000			
C#Cc1cccc(Nc2ncnc3cc(OCC)c4c(c23)OCCO4)c1	9.2	21.5	8890	10500	28200
CCOC(C)Oc1cc2ncnc(Nc3ccc(F)c([N+](=O)[O-])c3)c2c2c1OCCO2 (stereo not given)	232	271			
C#Cc1cccc(Nc2ncnc3cc(OCC4CCCO4)c4c(c23)OCCO4)c1 (stereo not given)	27.3	121			40200
COc1ccc(Nc2ncnc3cc(OC(C)C)c4c(c23)OCCO4)cc1[N+](=O)[O-]	> 1000	> 1000			
CCOc1cc2ncnc(Nc3cccc([N+](=O)[O-])c3)c2c2c1OCCO2	9.7	71			42000
COCCOc1cc2ncnc(Nc3ccc(F)cc3)c2c2c1OCCO2	200	> 1000			25900
C#Cc1cccc(Nc2ncnc3cc(OC(C)C)c4c(c23)OCCO4)c1	23.7	31.4	4540	6080	22100
CCOc1cc2ncnc(Nc3ccc(C)c(Cl)c3)c2c2c1OCCO2	6.7	33.8	17300	11800	
Fc1cccc(Nc2ncnc3cc(OCCCN4CCOCC4)c4c(c23)OCCO4)c1	83.9				
C#Cc1cccc(Nc2ncnc3cc(OCCOC)c(OCCOC)cc23)c1 [ERLOTINIB]			3910	7350	28200
CCOc1cc2ncnc(Nc3cccc(OC)c3)c2c2c1OCCO2	4.4	70			25300
Fc1ccc(Nc2ncnc3cc(OCC4CCCO4)c4c(c23)OCCO4)cc1Cl (stereo not given)	24.1	> 1000			
COCCOc1cc2ncnc(Nc3ccc(OC)c([N+](=O)[O-])c3)c2c2c1OCCO2	> 1000	> 1000			
Fc1ccc(Nc2ncnc3cc(OCCCN4CCOCC4)c4c(c23)OCCO4)cc1Cl	25.9				
COCCOc1cc2ncnc(Nc3ccc(Cl)c([N+](=O)[O-])c3)c2c2c1OCCO2	36.2	> 1000			
COCCOc1cc2ncnc(Nc3ccc(F)c(C#N)c3)c2c2c1OCCO2	388	> 1000			
C#Cc1cccc(Nc2ncnc3cc(OC)c4c(c23)OCCO4)c1	10.9	> 1000			11700
FC(F)(F)c1cccc(Nc2ncnc3cc(OCCCN4CCOCC4)c4c(c23)OCCO4)c1	97.2				

SMILES	IC50 [1] [nM]	IC50 [2] [nM]	IC50 [3] [nM]	IC50 [4] [nM]	CC50 [5] [nM]
C#Cc1cccc(Nc2ncnc3cc(OC4CCOCC4)c4c(c23)OCCO4)c1	57.8	> 1000			
CCOc1cc2ncnc(Nc3ccc(F)c(Cl)c3)c2c2c1OCCO2	2	6.9	22700	16100	37000
COCCOc1cc2ncnc(Nc3ccc(C)c([N+](=O)[O-])c3)c2c2c1OCCO2	74.6	> 1000			
COCCOc1cc2ncnc(Nc3ccc(F)c(Cl)c3)c2c2c1OCCO2	13.1	10.5	5930	13900	
CCOC(C)Oc1cc2ncnc(Nc3ccc(C)c(C#N)c3)c2c2c1OCCO2 (stereo not given)	> 1000	> 1000			
CC(C)Oc1cc2ncnc(Nc3ccc(Cl)c([N+](=O)[O-])c3)c2c2c1OCCO2	103	1300			
C#Cc1cccc(Nc2ncnc3cc(OC(C)COC)c4c(c23)OCCO4)c1 (stereo not given)	474	76.1			
CCOC(C)Oc1cc2ncnc(Nc3ccc(C)c([N+](=O)[O-])c3)c2c2c1OCCO2 (stereo not given)	363	> 1000			
C#Cc1cccc(Nc2ncnc3cc(OC4CCOC4)c4c(c23)OCCO4)c1 (stereo not given)	16.7	324			
CCOC(C)Oc1cc2ncnc(Nc3ccc(OC)c([N+](=O)[O-])c3)c2c2c1OCCO2 (stereo not given)	> 1000	> 1000			
Fc1ccc(Nc2ncnc3cc(OC4CCOCC4)c4c(c23)OCCO4)cc1Cl	58.8	> 1000			
CC(C)Oc1cc2ncnc(Nc3ccc(F)c(C#N)c3)c2c2c1OCCO2	314	> 1000			
Cc1ccc(Nc2ncnc3cc(OC(C)C)c4c(c23)OCCO4)cc1C#N	416	> 1000			
CCOc1cc2ncnc(Nc3ccc(C)cc3)c2c2c1OCCO2	3.6	124			27400
COCCOc1cc2ncnc(Nc3cccc(OC)c3)c2c2c1OCCO2	160	109			20800
Brc1cccc(Nc2ncnc3cc(OCCCN4CCOCC4)c4c(c23)OCCO4)c1	18.5				
C#Cc1cccc(Nc2ncnc3cc(OCCOC)c4c(c23)OCCO4)c1	21	8.1	7350	9930	22100
CC(C)Oc1cc2ncnc(Nc3ccc(F)c(Cl)c3)c2c2c1OCCO2	29.1	46.3	6920	11600	
Fc1ccc(Nc2ncnc3cc(OC4CCOC4)c4c(c23)OCCO4)cc1Cl (stereo not given)	20.5	151			
CCOC(C)Oc1cc2ncnc(Nc3ccc(F)c(C#N)c3)c2c2c1OCCO2 (stereo not given)	352	> 1000			
CC(C)Oc1cc2ncnc(Nc3ccc(F)c([N+](=O)[O-])c3)c2c2c1OCCO2	82.5	> 1000			
